Earlier results on 1 compound are cited in patent US20140323444A1, “ANTI-INFLAMMATORY AND ANTIDIABETIC AGENTS” (priority 2013, published 2014).

In data set [1] the test system is patients with type 2 diabetes.
For data set [2] the following is noted: compared with placebo; in contrast to aspirin.
Data set [3] concerns platelet aggregation. Conditions: unlike aspirin.
For data set [4], the system named is prostaglandin synthesis. Conditions: in vivo; compared with aspirin and indomethacin.

Structures are written as SMILES.

Regarding `O=C(Oc1ccccc1C(=O)O)c1ccccc1O` [salsalate, 2-(2-hydroxybenzoyl)oxybenzoic acid], in data set [1] (in vivo), the adiponectin concentrations entry is given as “increase adiponectin concentrations”, the circulating insulin entry is given as “increase circulating insulin” and the glucose utilization entry was “improve glucose utilization”. In data set [1] (patients with type 2 diabetes), the C-reactive protein entry is recorded as “lowers”, the HbA1c levels entry is recorded as “lowers”, the blood glucose result is listed as “lowers” and the free fatty acid result is listed as “lowers”. Besides, the triglycerides entry in data set [1] (patients with type 2 diabetes) was “lowers”. In data set [2], the “fecal gastrointestinal blood loss” value is given as “no greater fecal gastrointestinal blood loss than placebo”. In data set [3], the “inhibition of platelet aggregation” value is listed as “does not inhibit platelet aggregation”. Besides, in data set [4], the anti-inflammatory activity result is “equivalent to aspirin and indomethacin”.
